{"source": "patent US10849867B2", "about": "“Methods and compositions for treating conditions associated with an abnormal inflammatory response” (First Wave Bio, Inc., priority 2015, dated 2020)", "key": {"[1]": {"test_system": "human LPMCs T cells", "assay": "ΔΨm in human LPMC CD45+CD3+ T cells, JC-1 flow cytometry (Example 12)", "type": "cell-based", "settings": "5 μM, 60 min, JC-1, relative to negative control", "description": "The Model-Lamina propria mononuclear cells (LPMC) in the human intestine are comprised in part by T cells which mediate physiological and pathological processes including inflammatory bowel disease. LPMCs can be isolated from human tissue biopsies. After isolation […] cells remain viable ex vivo under appropriate culture conditions for periods of time that allow ex vivo experiments. These cells can be used to investigate mechanisms that regulate their mitochondrial function and survival They contain respiring mitochondria and as such their response to test agents may be assessed. Uncoupling is identified and quantified by a detecting a drop in the electrochemical gradient across the mitochondrial inner membrane (ΔΨm). […] The isolated cells were counted and checked for viability using 0.1% trypan blue (viability ranged from 86% to 94%). […] A flow cytometer FACSVerse flow cytometer and FACSSuite software [BD Biosciences] was used for quantification of JC-1 fluorescence in CD45+CD3+ cells. […] Consequently, mitochondrial depolarization is indicated by a decrease in the red/green fluorescence intensity ratio. […] LPMC CD45+CD3+ T cells were first defined by their fluorescence emission from labeling with eFluor® 450-anti-CD3 antibody and PerCP-Cyanine5.5-[…] antibody. The fluorescence intensity of JC-1 detected at 525 nm and 590 nm in the CD45+CD3+ T cell population was then measured. […]"}, "[2]": {"test_system": "LPMC T cells", "assay": "LPMC T cell death, 7-AAD flow cytometry (Example 3)", "type": "cell-based, human", "description": "Objective. […] Model. The human LPMC model as described in Example 2 was used. Cell isolation and culture. Cell isolation and culture procedures were as detailed in Example 2. Treatment with Niclosamide. […] […] […] After treatment cells were exposed to 1 μM 7AAD then incubated a further 60 minutes at 37° C. Live cells and dead cells were enumerated by flow cytometer using a FACS Verse cytometer set to excite and measure emitted fluorescence of 7-AAD at appropriate wavelengths. Detecting viable and dead cells. 7-AAD is excluded from live cells but free to enter dead cells where it undergoes a spectral shift after interacting with cellular DNA. […] Use of this reagent allows viable cells and dead cells to be simultaneously enumerated. In order to specifically distinguish T cells from other cells in LPMCs, anti-CD3 monoclonal antibody labeled with FITC (excitation at 494 nm with emission detected at 521 nm) will be used. This antibody specifically binds human CD3 antigen that is selectively expressed on T cells. Cell viability and death was determined specifically in T cells by measuring 7-AAD fluorescence in cells labeled by anti-CD3 FITC. Calculation of T cell death. The fluorescence intensity of 7-AAD detected at 647 nm was measured specifically T the cell population that was first defined as described in Example 2 by FITC-anti-CD3 antibody fluorescence. […] For statistical comparisons, 95% confidence intervals were computed and graphed with the mean values."}}}
{"smiles": "O=C(Nc1ccc([N+](=O)[O-])cc1Cl)c1cc(Cl)ccc1O", "note": "[Niclosamide, 5-chloro-N-(2-chloro-4-nitrophenyl)-2-hydroxybenzamide]", "values": [{"measurement": "change in ΔΨm in human LPMCs T cells", "setting": "[1]", "result": "decrease"}, {"measurement": "LPMC T cell death", "setting": "[2]; 1-500 μM, 24 hours, 7-AAD in CD3+ cells", "result": "dose-related increase"}, {"measurement": "concentrations that fail to induce T cell death", "setting": "[2]; LPMC T cells", "result": "below 5 μM"}, {"measurement": "concentrations of niclosamide that significantly increase T cell death (p<0.05)", "setting": "[2]; relative to negative controls with vehicle alone", "result": "≥ 5", "unit": "µM"}]}
